From the supplement of paper PMC10307832

Experiments:
Assay in all cases: relative viability (nuclei count vs DMSO), 5 days (fraction); higher = more cells survive
[1] = system: HCC-78
In short: (§1)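 Cells from lung cancer lines were seeded into 1536-well plates and, one day later, dosed by pin tool. Treatments were either a single drug or a fixed dose of an anchor drug with five library-drug doses (not always all listed) in √10 steps. After 5 days, nuclei were stained in a one-step fixation (final 0.05% Triton X-100, 1% formaldehyde, 1 ug/ml Hoechst) and counted on 4× images, and relative viability is the treated-to-vehicle nuclei ratio, as the median of duplicate plates.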

[2] = system: NCI-H460
In short: as §1

[3] = system: NCI-H2085
In short: as §1

[4] = system: LU99A
In short: as §1

[5] = system: NCI-H1755
In short: as §1

[6] = system: NCI-H650
In short: as §1

[7] = system: HARA
In short: as §1

[8] = system: PC-3 [JPC-3]
In short: as §1

[9] = system: NCI-H596
In short: as §1

[10] = system: HCC-366
In short: as §1

[11] = system: NCI-H322M
In short: as §1

[12] = system: NCI-H2087
In short: as §1

[13] = system: NCI-H1651
In short: as §1

[14] = system: NCI-H358
In short: as §1

[15] = system: H3255
In short: as §1

[16] = system: NCI-H1793
In short: as §1

[17] = system: 201T
In short: as §1

[18] = system: NCI-H3122
In short: as §1

[19] = system: SK-LU-1
In short: as §1

[20] = system: COR-L23
In short: as §1

[21] = system: NCI-H23
In short: as §1

Cc1cn(-c2cc(NC(=O)c3ccc(C)c(Nc4nccc(-c5cccnc5)n4)c3)cc(C(F)(F)F)c2)cn1 [Nilotinib] + C[C@]1(O)C[C@@H](c2nc(-c3ccc4ccc(-c5ccccc5)nc4c3)c3c(N)nccn32)C1 [Linsitinib] (partner 1 µM) was tested, and the relative viability ([1]; first compound 0.001 µM) was 0.582, the relative viability ([1]; first compound 0.003162 µM) was 0.522 and the relative viability ([1]; first compound 0.01 µM) was 0.637. It also gave a relative viability ([1]; first compound 0.03162 µM) of 0.612, a relative viability ([1]; first compound 0.1 µM) of 0.604 and a relative viability ([2]; first compound 0.001 µM) of 0.586. For the same compound, the relative viability ([2]; first compound 0.003162 µM) was 1.1, the relative viability ([2]; first compound 0.01 µM) was 1.75 and the relative viability ([2]; first compound 0.03162 µM) was 0.319. For the same compound, the relative viability ([2]; first compound 0.1 µM) was 0.507, the relative viability ([3]; first compound 0.001 µM) was 0.864 and the relative viability ([3]; first compound 0.003162 µM) was 1.08. For the same compound, the relative viability ([3]; first compound 0.01 µM) was 1.15, the relative viability ([3]; first compound 0.03162 µM) was 0.888 and the relative viability ([3]; first compound 0.1 µM) was 0.884. For the same compound, the relative viability ([4]; first compound 0.001 µM) was 0.468, the relative viability ([4]; first compound 0.003162 µM) was 0.59 and the relative viability ([4]; first compound 0.01 µM) was 0.593. It also gave a relative viability ([4]; first compound 0.03162 µM) of 0.568, a relative viability ([4]; first compound 0.1 µM) of 0.318 and a relative viability ([5]; first compound 0.001 µM) of 1.02. It also gave a relative viability ([5]; first compound 0.003162 µM) of 1.15, a relative viability ([5]; first compound 0.01 µM) of 1.12 and a relative viability ([5]; first compound 0.03162 µM) of 1.07. For the same compound, the relative viability ([5]; first compound 0.1 µM) was 0.894, the relative viability ([6]; first compound 0.001 µM) was 0.81 and the relative viability ([6]; first compound 0.003162 µM) was 0.778. The relative viability ([6]; first compound 0.01 µM) was 0.925, the relative viability ([6]; first compound 0.03162 µM) was 0.84 and the relative viability ([6]; first compound 0.1 µM) was 0.686. It also gave a relative viability ([7]; first compound 0.001 µM) of 0.987, a relative viability ([7]; first compound 0.003162 µM) of 1.37 and a relative viability ([7]; first compound 0.01 µM) of 1.3. It also gave a relative viability ([7]; first compound 0.03162 µM) of 0.742, a relative viability ([7]; first compound 0.1 µM) of 0.93 and a relative viability ([8]; first compound 0.001 µM) of 0.997. For the same compound, the relative viability ([8]; first compound 0.003162 µM) was 1.1, the relative viability ([8]; first compound 0.01 µM) was 1.09 and the relative viability ([8]; first compound 0.03162 µM) was 1.01. The relative viability ([8]; first compound 0.1 µM) was 0.927, the relative viability ([9]; first compound 0.003162 µM) was 1.26 and the relative viability ([9]; first compound 0.01 µM) was 1.28. For the same compound, the relative viability ([9]; first compound 0.03162 µM) was 0.812, the relative viability ([10]; first compound 0.001 µM) was 0.577 and the relative viability ([10]; first compound 0.003162 µM) was 1.33. It also gave a relative viability ([10]; first compound 0.01 µM) of 0.857, a relative viability ([10]; first compound 0.03162 µM) of 0.64 and a relative viability ([10]; first compound 0.1 µM) of 0.472. It also gave a relative viability ([11]; first compound 0.001 µM) of 0.747, a relative viability ([11]; first compound 0.003162 µM) of 1.03 and a relative viability ([11]; first compound 0.03162 µM) of 0.76. The relative viability ([11]; first compound 0.1 µM) was 0.932, the relative viability ([12]; first compound 0.001 µM) was 0.855 and the relative viability ([12]; first compound 0.003162 µM) was 0.949. It also gave a relative viability ([12]; first compound 0.01 µM) of 1.08, a relative viability ([12]; first compound 0.03162 µM) of 0.852 and a relative viability ([12]; first compound 0.1 µM) of 0.66. For the same compound, the relative viability ([13]; first compound 0.001 µM) was 1.08, the relative viability ([13]; first compound 0.003162 µM) was 1.42 and the relative viability ([13]; first compound 0.01 µM) was 1.32. It also gave a relative viability ([13]; first compound 0.03162 µM) of 0.879, a relative viability ([13]; first compound 0.1 µM) of 1.06 and a relative viability ([14]; first compound 0.001 µM) of 0.67. The relative viability ([14]; first compound 0.003162 µM) was 0.893, the relative viability ([14]; first compound 0.01 µM) was 0.847 and the relative viability ([14]; first compound 0.03162 µM) was 0.474. The relative viability ([14]; first compound 0.1 µM) was 0.612, the relative viability ([15]; first compound 0.001 µM) was 0.817 and the relative viability ([15]; first compound 0.003162 µM) was 1.06. The relative viability ([15]; first compound 0.01 µM) was 1.2, the relative viability ([15]; first compound 0.03162 µM) was 0.875 and the relative viability ([15]; first compound 0.1 µM) was 0.952. For the same compound, the relative viability ([16]; first compound 0.003162 µM) was 1.09, the relative viability ([16]; first compound 0.01 µM) was 1.41 and the relative viability ([16]; first compound 0.03162 µM) was 0.734. For the same compound, the relative viability ([16]; first compound 0.1 µM) was 0.443, the relative viability ([17]; first compound 0.001 µM) was 0.942 and the relative viability ([17]; first compound 0.003162 µM) was 1.06. For the same compound, the relative viability ([17]; first compound 0.01 µM) was 1.12, the relative viability ([18]; first compound 0.001 µM) was 1.16 and the relative viability ([18]; first compound 0.003162 µM) was 1.11. For the same compound, the relative viability ([18]; first compound 0.01 µM) was 1.16, the relative viability ([18]; first compound 0.03162 µM) was 0.894 and the relative viability ([18]; first compound 0.1 µM) was 0.833. For the same compound, the relative viability ([19]; first compound 0.001 µM) was 0.916, the relative viability ([19]; first compound 0.003162 µM) was 1.25 and the relative viability ([19]; first compound 0.01 µM) was 1.46. For the same compound, the relative viability ([19]; first compound 0.03162 µM) was 0.987, the relative viability ([19]; first compound 0.1 µM) was 0.9 and the relative viability ([20]; first compound 0.001 µM) was 0.777. It also gave a relative viability ([20]; first compound 0.003162 µM) of 1.18, a relative viability ([20]; first compound 0.01 µM) of 1.24 and a relative viability ([20]; first compound 0.03162 µM) of 0.781. For the same compound, the relative viability ([20]; first compound 0.1 µM) was 0.903, the relative viability ([21]; first compound 0.001 µM) was 0.556 and the relative viability ([21]; first compound 0.003162 µM) was 0.686. The relative viability ([21]; first compound 0.01 µM) was 0.713, the relative viability ([21]; first compound 0.03162 µM) was 0.49 and the relative viability ([21]; first compound 0.1 µM) was 0.579.
